Measured values from patent publication US8168199B2, “Dipeptidyl peptidase IV inhibitors for the treatment of schizophrenia and depression” (priority 2000, dated 2012).

Test system: Male WistarF/Han (WF) rats
Assay: Social interaction (SI) test with Y1R antagonist BIBP3226, P32/98 and NPY (Example 4)
Type: in vivo, rat
Conditions: i.c.v. 50 nmol
Procedure: Animals. Male WistarF/Han (WF) rats (Central Animal Laboratory, Hannover Medical School, Hannover, Germany, weighing 330±31 g±SD, were housed in a sound-proof, temperature controlled (24.0±0.5° C.) room under specific pathogen free conditions with a 12/12 h dark/light cycle (lights on at 07.00 with illumination level of 80 Lux). Food (Altromin lab chow pellets) and tap water were available ad libitum. Under ketamine/xylasine (100/5 mg/kg, i.p.) anesthesia, the rats were fixed in a Kopf stereotaxic frame and implanted with cannulae (Plastic One, Inc., Roanoke, Va., USA) above the lateral ventricle. All research and animal care procedures were approved by the Lower Saxony district government (Hannover, Germany) and followed principles described in the European Community's Council Directive of 24 Nov. 1986 (86/609/EEC).
Surgery and i.c.v. application. […]
Animals were randomly divided into eight experimental groups (n=6-8/group), which completed one SI test of anxiety: (1) aCSF+aCSF+aCSF; (2) BIBP+aCSF+aCSF; (3) aCSF+P32/98+aCSF; (4) BIBP+P32/98+aCSF; (5) aCSF+aCSF+NPY; (6) BIBP+aCSF+NPY; (7) aCSF+[…]+NPY; (8) BIBP+P32/98+NPY. […] The time spent in active social interaction (SI-time), 1 h, and 12 h food-intake were measured. […]
Social interaction (SI) test. […] Behavior was monitored using a video camera placed above the field inside the testing/isolation box. The SI behavior of both rats was recorded on-line from a monitor placed outside on top of the box. The following parameters were scored by an observer (HPN) unaware of the substrain of rats: duration of time spent in sniffing, following, crawling under and over other rats, but not passive body contact (resting, sleeping). […]
Statistical analysis. Data obtained from the measures SI time and 1 h food intake were analyzed by one-way (factor: “treatment”) ANOVA. […]

CC[C@H](C)[C@H](N)C(=O)N1CCSC1 [P32/98]
SI-time, P32/98 alone: acts not anxiolytic-like
